# Assay results taken from ChEMBL document CHEMBL5247620, “Lupane derivatives containing various aryl substituents in the position 3 have selective cytostatic effect in leukemic cancer cells including resistant phenotypes” (Eur J Med Chem, 2022).
# pIC50: −log10 of the molar value. Active and inactive are the calls of the source. No cut-off for these calls is given here.
# Legend:
# CCRF-CEM [1] = test: Cytotoxicity against human CCRF-CEM cells assessed as inhibition of cell growth incubated for 72 hrs by MTS assay; assay type: functional, cell-based
# CEM-DNR = test: Cytotoxicity against human CEM-DNR cells assessed as inhibition of cell growth incubated for 72 hrs by MTS assay; assay type: functional, cell-based
# K562 = test: Cytotoxicity against human K562 cells assessed as inhibition of cell growth incubated for 72 hrs by MTS assay; assay type: functional, cell-based; settings: K562, 72 h
# [2] = Cytotoxicity against human K562-Tax cells assessed as inhibition of cell growth incubated for 72 hrs by MTS assay; assay type: functional, cell-based
# A549 = test: Cytotoxicity against human A549 cells assessed as inhibition of cell growth incubated for 72 hrs by MTS assay; assay type: functional, cell-based; settings: A549, 72 h
# HCT-116 = test: Cytotoxicity against human HCT-116 cells assessed as inhibition of cell growth incubated for 72 hrs by MTS assay; assay type: functional, cell-based; settings: HCT-116, 72 h
# [3] = Cytotoxicity against human p53HCT116 cells assessed as inhibition of cell growth incubated for 72 hrs by MTS assay; assay type: functional, cell-based; settings: p53HCT116, 72 h
# U2OS = test: Cytotoxicity against human U2OS cells assessed as inhibition of cell growth incubated for 72 hrs by MTS assay; assay type: functional, cell-based
# [4] = Cytotoxicity against human BJ cells assessed as inhibition of cell growth incubated for 72 hrs by MTS assay; assay type: toxicity, cell-based
# [5] = Cytotoxicity against human MRC5 cells assessed as inhibition of cell growth incubated for 72 hrs by MTS assay; assay type: toxicity, cell-based
# CCRF-CEM [6] = test: Induction of apoptosis in human CCRF-CEM cells assessed as viable cells at 1 times IC50 concentration incubated for 24 hrs by annexin V FITC/propidium iodide staining based flow cytometry (reference value: 96 %); assay type: functional
# CCRF-CEM [7] = test: Induction of apoptosis in human CCRF-CEM cells assessed as early apoptotic cells at 1 times IC50 concentration incubated for 24 hrs by annexin V FITC/propidium iodide staining based flow cytometry (reference value: 2.6 %); assay type: functional
# CCRF-CEM [8] = test: Induction of apoptosis in human CCRF-CEM cells assessed as late apoptotic cells at 1 times IC50 concentration incubated for 24 hrs by annexin V FITC/propidium iodide staining based flow cytometry (reference value: 1.4 %); assay type: functional
# CCRF-CEM [9] = test: Induction of apoptosis in human CCRF-CEM cells assessed as viable cells at 5 times IC50 concentration incubated for 24 hrs by annexin V FITC/propidium iodide staining based flow cytometry (reference value: 96 %); assay type: functional
# CCRF-CEM [10] = test: Induction of apoptosis in human CCRF-CEM cells assessed as early apoptotic cells at 5 times IC50 concentration incubated for 24 hrs by annexin V FITC/propidium iodide staining based flow cytometry (reference value: 2.6 %); assay type: functional
# CCRF-CEM [11] = test: Induction of apoptosis in human CCRF-CEM cells assessed as late apoptotic cells at 5 times IC50 concentration incubated for 24 hrs by annexin V FITC/propidium iodide staining based flow cytometry (reference value: 1.4 %); assay type: functional
# CCRF-CEM [12] = test: Induction of apoptosis in human CCRF-CEM cells assessed as decrease in cell number at 1 times IC50 concentration incubated for 24 to 74 hrs by annexin V FITC/propidium iodide staining based flow cytometry; assay type: functional; settings: time 24-74 hrs
# CCRF-CEM [13] = test: Induction of apoptosis in human CCRF-CEM cells assessed as decrease in cell number at 5 times IC50 concentration incubated for 24 to 74 hrs by annexin V FITC/propidium iodide staining based flow cytometry; assay type: functional; settings: time 24-74 hrs
# [14] = Chemical stability of the compound in PBS buffer assessed as compound remaining at pH 7.4 at 2 uM measured after 15 mins by RF-MS analysis; assay type: physicochemical; settings: read-out: Stability
# [15] = Chemical stability of the compound in PBS buffer assessed as compound remaining at pH 7.4 at 2 uM measured after 30 mins by RF-MS analysis; assay type: physicochemical; settings: read-out: Stability
# [16] = Chemical stability of the compound in PBS buffer assessed as compound remaining at pH 7.4 at 2 uM measured after 60 mins by RF-MS analysis; assay type: physicochemical; settings: read-out: Stability
# [17] = Chemical stability of the compound in PBS buffer assessed as compound remaining at pH 7.4 at 2 uM measured after 120 mins by RF-MS analysis; assay type: physicochemical; settings: read-out: Stability
# [18] = Plasma protein binding in human assessed as fraction bound at 10 uM incubated for 4 hrs by rapid equilibrium dialysis based RF-MS analysis; assay type: ADME, cell-free; settings: read-out: PPB (converted)
# [19] = Plasma stability in human assessed as compound remaining at 2 uM measured after 15 mins by RF-MS analysis; assay type: ADME, cell-free; settings: read-out: Stability
# [20] = Plasma stability in human assessed as compound remaining at 2 uM measured after 30 mins by RF-MS analysis; assay type: ADME, cell-free; settings: read-out: Stability
# [21] = Plasma stability in human assessed as compound remaining at 2 uM measured after 60 mins by RF-MS analysis; assay type: ADME, cell-free; settings: read-out: Stability
# [22] = Plasma stability in human assessed as compound remaining at 2 uM measured after 120 mins by RF-MS analysis; assay type: ADME, cell-free; settings: read-out: Stability
# [23] = Microsomal stability in human liver microsome as compound remaining at 2 uM measured after 15 mins in presence of NADPH by RF-MS analysis; assay type: ADME; settings: liver microsomes, read-out: Stability
# [24] = Microsomal stability in human liver microsome as compound remaining at 2 uM measured after 30 mins in presence of NADPH by RF-MS analysis; assay type: ADME; settings: liver microsomes, read-out: Stability
# [25] = Microsomal stability in human liver microsome as compound remaining at 2 uM measured after 60 mins in presence of NADPH by RF-MS analysis; assay type: ADME; settings: liver microsomes, read-out: Stability
# [26] = Apparent permeability across apical to basolateral side in dog MDCK-MDR1 cells incubated for 1 hr by high-throughput spectrometric analysis; assay type: ADME, cell-based, Canis lupus familiaris
# [27] = Apparent permeability across apical to basolateral side in human Caco-2 cells incubated for 2 hr by high-throughput spectrometric analysis; assay type: ADME, cell-based
# [28] = Efflux ratio of apparent permeability from basolateral to apical side over apical to basolateral side in dog MDCK-MDR1 cells incubated for 1 hr by high-throughput spectrometric analysis; assay type: ADME, cell-based, Canis lupus familiaris
# [29] = Efflux ratio of apparent permeability from basolateral to apical side over apical to basolateral side in human Caco-2 cells incubated for 2 hr by high-throughput spectrometric analysis; assay type: ADME, cell-based
# [30] = Apparent permeability across apical to basolateral side in dog MDCK-MDR1 cells assessed as drug recovery incubated for 1 hr by high-throughput spectrometric analysis; assay type: ADME, cell-based, Canis lupus familiaris; settings: read-out: Drug recovery
# [31] = Apparent permeability across apical to basolateral side in human Caco-2 cells assessed as drug recovery incubated for 2 hr by high-throughput spectrometric analysis; assay type: ADME, cell-based; settings: read-out: Drug recovery
# CCRF-CEM [32] = test: Induction of cell cycle arrest in human CCRF-CEM cells assessed as accumulation of cells at G1 phase at 1 times IC50 concentration incubated for 24 to 72 hrs by propidium iodide staining based flow cytometry; assay type: functional; settings: time 24-72 hrs
# CCRF-CEM [33] = test: Induction of cell cycle arrest in human CCRF-CEM cells assessed as accumulation of cells at G1 phase at 5 times IC50 concentration incubated for 24 to 72 hrs by propidium iodide staining based flow cytometry; assay type: functional; settings: time 24-72 hrs
# CCRF-CEM [34] = test: Induction of cell cycle arrest in human CCRF-CEM cells assessed as decrease of cell population at S phase at 1 times IC50 concentration incubated for 24 to 72 hrs by propidium iodide staining based flow cytometry; assay type: functional; settings: time 24-72 hrs
# CCRF-CEM [35] = test: Induction of cell cycle arrest in human CCRF-CEM cells assessed as decrease of cell population at S phase at 5 times IC50 concentration incubated for 24 to 72 hrs by propidium iodide staining based flow cytometry; assay type: functional; settings: time 24-72 hrs
# CCRF-CEM [36] = test: Induction of apoptosis in human CCRF-CEM cells assessed as decrease in Rb phosphorylation level at Ser780 at 5 times IC50 concentration incubated for 24 hrs by western blot assay; assay type: functional, cell-based
# CCRF-CEM [37] = test: Induction of apoptosis in human CCRF-CEM cells assessed as decrease in Rb phosphorylation level at Ser807/811 at 5 times IC50 concentration incubated for 24 hrs by western blot assay; assay type: functional, cell-based
# CCRF-CEM [38] = test: Induction of apoptosis in human CCRF-CEM cells assessed as decrease in cyclin A protein expression level at 5 times IC50 concentration incubated for 24 hrs by western blot assay; assay type: functional, cell-based
# CCRF-CEM [39] = test: Induction of apoptosis in human CCRF-CEM cells assessed as decrease in Bcl-2 protein expression level at 5 times IC50 concentration incubated for 24 hrs by western blot assay; assay type: functional, cell-based
# CCRF-CEM [40] = test: Induction of apoptosis in human CCRF-CEM cells assessed as effect on total Rb protein level at 5 times IC50 concentration incubated for 24 hrs by western blot assay; assay type: functional, cell-based
# CCRF-CEM [41] = test: Induction of apoptosis in human CCRF-CEM cells assessed as effect on total Rb protein level at 1 times IC50 concentration incubated for 24 hrs by western blot assay; assay type: functional, cell-based
compound,measurement,setting,value
C=C(C)[C@@H]1CC[C@]2(C(=O)O)CC[C@]3(C)[C@H](CC[C@@H]4[C@@]5(C)CC=C(c6cccc(O)c6)C(C)(C)[C@@H]5CC[C@]43C)[C@@H]12,pIC50,CCRF-CEM [1],5.41
same,pIC50,CEM-DNR,5.40
same,pIC50,K562,4.72
same,pIC50,[2],5.42
same,pIC50,A549,4.85
same,pIC50,HCT-116,5.40
same,pIC50,[3],4.92
same,pIC50,U2OS,4.77
same,IC50 at 72 h,[4],31 µM
same,IC50 at 72 h,[5],19 µM
same,Activity,CCRF-CEM [6],94.5%
same,Activity,CCRF-CEM [7],3.4%
same,Activity,CCRF-CEM [8],2.1%
same,Activity,CCRF-CEM [9],89%
same,Activity,CCRF-CEM [10],6%
same,Activity,CCRF-CEM [11],5%
same,Activity,CCRF-CEM [12],Active
same,Activity,CCRF-CEM [13],Active
same,"remaining at 0.25 h, 2 µM",[14],99.6%
same,"remaining at 0.5 h, 2 µM",[15],93.5%
same,"remaining at 1 h, 2 µM",[16],102%
same,"remaining at 2 h, 2 µM",[17],105%
same,"fraction unbound at 4 h, 10 µM",[18],0.334
same,"remaining at 0.25 h, 2 µM",[19],90.3%
same,"remaining at 0.5 h, 2 µM",[20],87.4%
same,"remaining at 1 h, 2 µM",[21],85.6%
same,"remaining at 2 h, 2 µM",[22],86.7%
same,"remaining at 0.25 h, 2 µM",[23],99.3%
same,"remaining at 0.5 h, 2 µM",[24],97.8%
same,"remaining at 1 h, 2 µM",[25],95.8%
same,Papp A→B at 1 h,[26],8.84 ×10⁻⁶ cm/s
same,Papp A→B at 2 h,[27],2.32 ×10⁻⁶ cm/s
same,efflux ratio at 1 h,[28],1.29
same,efflux ratio at 2 h,[29],1.72
same,recovery at 1 h,[30],67.6%
same,recovery at 2 h,[31],97.5%
same,Activity,CCRF-CEM [32],Active
same,Activity,CCRF-CEM [33],20%
same,Activity,CCRF-CEM [34],Active
same,Activity,CCRF-CEM [35],Active
same,Activity,CCRF-CEM [36],Active
same,Activity,CCRF-CEM [37],Active
same,Activity,CCRF-CEM [38],Active
same,Activity,CCRF-CEM [39],Active
same,Activity,CCRF-CEM [40],inactive
same,Activity,CCRF-CEM [41],inactive
